Assays:
TNKS2 = biological target: T1, TNKS2 (Homo sapiens, UniProt Q9H2K2); test: TNKS2 Assay B (auto-parsylation, [3H]-NAD+ SPA); assay type: biochemical; settings: 6 nM TNKS2, auto-parsylation, over night at room temperature
T1 construct: purchased BPS Bioscience, San Diego, USA 80572 (TNKS2 Histone Ribosylation Assay Kit)
T1 sequence (Q9H2K2 1-1166): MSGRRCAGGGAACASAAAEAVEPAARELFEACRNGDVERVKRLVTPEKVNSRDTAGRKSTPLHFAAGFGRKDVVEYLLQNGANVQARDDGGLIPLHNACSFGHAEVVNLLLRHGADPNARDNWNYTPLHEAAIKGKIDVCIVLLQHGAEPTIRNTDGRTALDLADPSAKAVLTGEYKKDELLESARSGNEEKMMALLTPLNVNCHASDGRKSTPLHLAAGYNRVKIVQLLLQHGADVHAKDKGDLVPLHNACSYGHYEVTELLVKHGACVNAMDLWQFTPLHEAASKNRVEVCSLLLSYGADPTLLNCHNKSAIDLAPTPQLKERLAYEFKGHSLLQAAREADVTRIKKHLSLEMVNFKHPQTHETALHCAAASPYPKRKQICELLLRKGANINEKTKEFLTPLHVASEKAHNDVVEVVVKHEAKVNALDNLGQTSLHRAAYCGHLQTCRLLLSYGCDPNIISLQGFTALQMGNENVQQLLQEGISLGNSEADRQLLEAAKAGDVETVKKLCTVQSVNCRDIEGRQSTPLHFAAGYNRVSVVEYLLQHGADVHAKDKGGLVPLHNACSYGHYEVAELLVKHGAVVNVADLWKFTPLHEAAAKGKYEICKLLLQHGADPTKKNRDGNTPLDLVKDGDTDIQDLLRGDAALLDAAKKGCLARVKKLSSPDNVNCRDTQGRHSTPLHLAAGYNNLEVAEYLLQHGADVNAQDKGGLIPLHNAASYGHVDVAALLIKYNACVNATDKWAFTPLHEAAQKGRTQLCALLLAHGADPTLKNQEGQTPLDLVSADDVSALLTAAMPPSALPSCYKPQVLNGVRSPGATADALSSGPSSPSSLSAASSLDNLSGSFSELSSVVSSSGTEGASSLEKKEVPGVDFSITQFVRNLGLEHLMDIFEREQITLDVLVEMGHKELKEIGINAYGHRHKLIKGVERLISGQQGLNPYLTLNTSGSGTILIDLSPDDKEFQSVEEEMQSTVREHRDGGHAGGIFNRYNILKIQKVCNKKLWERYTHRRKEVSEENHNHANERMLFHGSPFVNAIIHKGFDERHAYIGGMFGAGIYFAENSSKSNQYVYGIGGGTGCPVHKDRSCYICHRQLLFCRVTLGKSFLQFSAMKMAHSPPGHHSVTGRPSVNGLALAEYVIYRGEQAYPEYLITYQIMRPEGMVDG

[1] = system: HEK293 cells cotransfected with the FOP control vector; test: HEK293 FOP assay (control reporter with non-functional TCF elements); assay type: cell-based; settings: Homo sapiens, 16 hours
Summary of the method: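 Compound series from 50 μM down to 15 nM, prediluted in DMSO then 50-fold into CAFTY buffer (pH 7.4, 2 mM Ca2+, 0.01% BSA), tested alongside TOP cells on a Geneticin-selected HEK293 FOP line whose TCF elements are replaced by a random sequence; recombinant human Wnt-3a applied at 2500-5 ng/ml.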

Structure (SMILES)	IC50 (TNKS2)	IC50 [1]
O=C(NCC1CCCO1)c1nc[nH]c1C(=O)N[C@H]1CC[C@H](C(=O)Nc2cc(F)c(F)cc2Cl)CC1 (stereo partly drawn) [Example 86, N^5-{trans-4-[(2-chloro-4,5-difluorophenyl)carbamoyl]cyclohexyl}-N^4-(tetrahydrofuran-2-ylmethyl)-1H-imidazole-4,5-dicarboxamide]	22 nM	14000 nM
COCC(C)NC(=O)c1nc[nH]c1C(=O)N[C@H]1CC[C@H](C(=O)Nc2cc(F)c(F)cc2Cl)CC1 (stereo partly drawn) [Example 87, N^5-{trans-4-[(2-chloro-4,5-difluorophenyl)carbamoyl]cyclohexyl}-N^4-(1-methoxypropan-2-yl)-1H-imidazole-4,5-dicarboxamide]	51 nM	≥ 50000 nM
CNC(=O)c1nc[nH]c1C(=O)N[C@H]1CC[C@H](C(=O)Nc2cc(N3CCOCC3)ccc2Cl)CC1 [Example 88, N^5-(trans-4-{[2-chloro-5-(morpholin-4-yl)phenyl]carbamoyl}cyclohexyl)-N^4-methyl-1H-imidazole-4,5-dicarboxamide]	7100 nM	≥ 50000 nM
O=C(NCC1CCCO1)c1nc[nH]c1C(=O)N[C@H]1CC[C@H](C(=O)Nc2cc(N3CCOCC3)ccc2Cl)CC1 (stereo partly drawn) [Example 89, N^5-(trans-4-{[2-chloro-5-(morpholin-4-yl)phenyl]carbamoyl}cyclohexyl)-N^4-(tetrahydrofuran-2-ylmethyl)-1H-imidazole-4,5-dicarboxamide]	1600 nM	24000 nM
COC(C)(C)CNC(=O)c1nc[nH]c1C(=O)N[C@H]1CC[C@H](C(=O)Nc2cc(N3CCOCC3)ccc2Cl)CC1 [Example 90, N^5-(trans-4-{[2-chloro-5-(morpholin-4-yl)phenyl]carbamoyl}cyclohexyl)-N^4-(2-methoxy-2-methylpropyl)-1H-imidazole-4,5-dicarboxamide]	2700 nM	33000 nM
CC(C)(O)CNC(=O)c1nc[nH]c1C(=O)N[C@H]1CC[C@@]2(CCN(c3cccc(Cl)c3)C2=O)CC1 [Example 284, N^5-[(trans)-2-(3-chlorophenyl)-1-oxo-2-azaspiro[4.5]dec-8-yl]-N^4-(2-hydroxy-2-methylpropyl)-1H-imidazole-4,5-dicarboxamide]	220 nM	6800 nM
COCC(C)NC(=O)c1nc[nH]c1C(=O)N[C@H]1CC[C@@]2(CCN(c3cccc(Cl)c3)C2=O)CC1 (stereo partly drawn) [Example 285, N^5-[(trans)-2-(3-chlorophenyl)-1-oxo-2-azaspiro[4.5]dec-8-yl]-N^4-(1-methoxypropan-2-yl)-1H-imidazole-4,5-dicarboxamide]	380 nM	16000 nM
O=C(N[C@H]1CC[C@@]2(CCN(c3cccc(Cl)c3)C2=O)CC1)c1[nH]cnc1C(=O)N1CCOCC1 [Example 286, N-[(trans)-2-(3-chlorophenyl)-1-oxo-2-azaspiro[4.5]dec-8-yl]-4-(morpholin-4-ylcarbonyl)-1H-imidazole-5-carboxamide]	4400 nM	≥ 50000 nM
CNC(=O)c1nc[nH]c1C(=O)N[C@H]1CC[C@@]2(CCN(c3cc(C)c(F)cc3Cl)C2=O)CC1 [Example 288, N^5-[(trans)-2-(2-chloro-4-fluoro-5-methylphenyl)-1-oxo-2-azaspiro[4.5]dec-8-yl]-N^4-methyl-1H-imidazole-4,5-dicarboxamide]	2.8 nM	20000 nM
CCNC(=O)c1nc[nH]c1C(=O)N[C@H]1CC[C@@]2(CCN(c3cc(C)c(F)cc3Cl)C2=O)CC1 [Example 289, N^5-[(trans)-2-(2-chloro-4-fluoro-5-methylphenyl)-1-oxo-2-azaspiro[4.5]dec-8-yl]-N^4-ethyl-1H-imidazole-4,5-dicarboxamide]	2.9 nM	16000 nM
Cc1cc(N2CC[C@]3(CC[C@@H](NC(=O)c4[nH]cnc4C(=O)NCCN4CCC(C)CC4)CC3)C2=O)c(Cl)cc1F [Example 290, N^5-[(trans)-2-(2-chloro-4-fluoro-5-methylphenyl)-1-oxo-2-azaspiro[4.5]dec-8-yl]-N^4-[2-(4-methylpiperidin-1-yl)ethyl]-1H-imidazole-4,5-dicarboxamide]	1.7 nM	16000 nM
Cc1cc(N2CC[C@]3(CC[C@@H](NC(=O)c4[nH]cnc4C(=O)NCC(F)(F)F)CC3)C2=O)c(Cl)cc1F [Example 297, N^5-[(trans)-2-(2-chloro-4-fluoro-5-methylphenyl)-1-oxo-2-azaspiro[4.5]dec-8-yl]-N^4-(2,2,2-trifluoroethyl)-1H-imidazole-4,5-dicarboxamide]	7.6 nM	9300 nM
O=C(N[C@H]1CC[C@@]2(CCN(c3cc(F)c(F)cc3Cl)C2=O)CC1)c1cnc2cccnn12 [Example 298, N-[(trans)-2-(2-chloro-4,5-difluorophenyl)-1-oxo-2-azaspiro[4.5]dec-8-yl]imidazo[1,2-b]pyridazine-3-carboxamide]	2 nM	≥ 50000 nM
Cc1cc(C)n2ncc(C(=O)N[C@H]3CC[C@@]4(CCN(c5cc(F)c(F)cc5Cl)C4=O)CC3)c2n1 [Example 299, N-[(trans)-2-(2-chloro-4,5-difluorophenyl)-1-oxo-2-azaspiro[4.5]dec-8-yl]-5,7-dimethylpyrazolo[1,5-a]pyrimidine-3-carboxamide]	2 nM	≥ 50000 nM
Cc1cc(N2CCC[C@]3(CC[C@@H](NC(=O)c4cnn5cccnc45)CC3)C2=O)c(Cl)cc1F [Example 300, N-[(trans)-2-(2-chloro-4-fluoro-5-methylphenyl)-1-oxo-2-azaspiro[5.5]undec-9-yl]pyrazolo[1,5-a]pyrimidine-3-carboxamide]	45 nM	≥ 500 nM
Cc1cc(N2CCC[C@]3(CC[C@@H](NC(=O)c4cnc5cccnn45)CC3)C2=O)c(Cl)cc1F [Example 301, N-[(trans)-2-(2-chloro-4-fluoro-5-methylphenyl)-1-oxo-2-azaspiro[5.5]undec-9-yl]imidazo[1,2-b]pyridazine-3-carboxamide]	80 nM	≥ 500 nM
Cc1cc(C)n2ncc(C(=O)N[C@H]3CC[C@@]4(CCCN(c5cc(C)c(F)cc5Cl)C4=O)CC3)c2n1 [Example 302, N-[(trans)-2-(2-chloro-4-fluoro-5-methylphenyl)-1-oxo-2-azaspiro[5.5]undec-9-yl]-5,7-dimethylpyrazolo[1,5-a]pyrimidine-3-carboxamide]	69 nM	≥ 500 nM
COCCNC(=O)c1nc[nH]c1C(=O)N[C@H]1CC[C@@]2(CCN(c3cc(C)c(F)cc3Cl)C2=O)CC1 [Example 334, N^5-[(trans)-2-(2-chloro-4-fluoro-5-methylphenyl)-1-oxo-2-azaspiro[4.5]dec-8-yl]-N^4-(2-methoxyethyl)-1H-imidazole-4,5-dicarboxamide]	4.9 nM	≥ 50000 nM
COC(=O)c1cc(C)nc2c(C(=O)N[C@H]3CC[C@H](C(=O)Nc4c(F)cc(F)cc4Cl)CC3)cnn12 [Example 351, methyl 3-({trans-4-[(2-chloro-4,6-difluorophenyl)carbamoyl]cyclohexyl}carbamoyl)-5-methylpyrazolo[1,5-a]pyrimidine-7-carboxylate]	56 nM	≥ 50000 nM
COC(=O)c1cc(C)nc2c(C(=O)N[C@H]3CC[C@H](C(=O)Nc4ccc(F)cc4Cl)CC3)cnn12 [Example 352, methyl 3-({trans-4-[(2-chloro-4-fluorophenyl)carbamoyl]cyclohexyl}carbamoyl)-5-methylpyrazolo[1,5-a]pyrimidine-7-carboxylate]	120 nM	≥ 50000 nM

Source: patent publication US20180148418A1, “AMIDO-SUBSTITUTED CYCLOHEXANE DERIVATIVES” (Bayer Pharma Aktiengesellschaft, priority 2015, published 2018)
